According to US7919101B2 (priority 2008, dated 2011):
pEC50: −log10 of the molar value. Read-outs that look alike come from different tables or passages of the source. Residues, ends and D or L forms follow the SMILES beside them.

Tests used:
[1] = tested on: HIV-1 BaL (subtype B, R5)
Experimental: (§1) 2. Inhibition of HIV infection as measured by luciferase assay. The inhibitory activity of fusion/entry inhibitors on HIV infection in TZM-bl cells was determined by using a luciferase assay (Wei X et al. Antimicrob. Agents Chemother. 46:1896-1905, 2002). Briefly, 50 μl of a compound at graded concentration in triplicate were incubated with an equal volume of an HIV-1 isolate at 0.01 multiplicity of infection (MOI) at 37° C. for 30 min, followed by addition of the mixture to 100 μl TZM-bl cells (1×10^5/ml) that were pre-cultured in a 96-well plate at 37° C. overnight. After further culture at 37° C. for 3 days, the cells were harvested and lyzed with 50 μl lysing reagent. The luciferase activity was analyzed using a luciferase kit (Promega Corp.) and a luminometer (Model: Ultra […], Tecan) according to the manufacture's instruction. The percent inhibition of cell fusion by a compound as well as EC50 and EC90 values were calculated using the software CalcuSyn.
(§2) 3. Inhibition of HIV replication as measured by p24 antigen production. The inhibitory activity of fusion/entry inhibitors on HIV-1 infection as measured by p24 antigen production was determined as previously described (Zhao Q et al. AIDS Res Hum Retroviruses 18:989-997, 2002). In brief, 1×10^4 MT-2 cells were infected with an HIV-1 strain (100 TCID50) in 200 μl RPMI 1640 medium containing 10% FBS in the presence or absence of testing compounds at graded concentrations overnight. Then the culture supernatants were removed and fresh media containing no testing compounds were added. On the fourth day post-infection, 100 μl of culture supernatants were collected from each well, mixed with equal volumes of 5% Triton X-100 and assayed for p24 antigen, which was quantitated by ELISA. Briefly, wells of polystyrene plates were coated with HIV immunoglobulin (HIVIG, prepared from plasma of HIV-seropositive donors with high neutralizing titers against HIV-1IIIB), in 0.085 M carbonate-bicarbonate buffer (pH 9.6) at 4° C. overnight, followed by washes with washing buffer (0.01 M PBS containing 0.05% Tween-20) and blocking with PBS containing 1% dry fat-free milk. Virus lysates were added to the wells and incubated at 37° C. for 1 hr. […] Reactions were terminated by addition of 1N H2SO4. Absorbance at 450 nm was recorded in an ELISA reader (Ultra 384, TECAN). Recombinant protein p24, purchased from US Biological, was included for establishing standard dose response curves. Each sample was tested in triplicate. The percentage of inhibition of p24 production was calculated as previously described (Neurath A R et al. BMC Infect Dis 2:6, 2002).
(§3) 4. Synergy analysis. […] In all analyses, HIV fusion/entry inhibitors were assumed to act noncompetitively, which led to a more conservative estimate of synergy. CI values<1 and >1 indicate synergy and antagonism, respectively. Dose reductions were calculated as the compound concentrations required for inhibition of HIV-1 replication when the compound was used alone and in combination. The statistic analysis was performed by the One-Way Analysis of Variance (One-Way ANOVA) method using Origin 6.1 software.

HIV-1 NL4-3(36G)V38A = tested on: HIV-1 NL4-3(36G)V38A
Experimental: as §1, §2, §3

[2] = tested on: HIV-1 NL4-3(36G)V38E/N42S
Experimental: as §1, §2, §3

[3] = tested on: HIV-1 IIIB (subtype B, X4)
Experimental: as §1, §2, §3

[4] = tested on: HIV-1 NL4-3(36G)V38A/N42D
Experimental: as §1, §2, §3

[5] = cited from earlier work
[6] = tested on: HIV-1 93IN101 (subtype C, R5)
Experimental: (§4) Inhibitory activity of fusion/entry inhibitors on infection by a primary HIV-1 isolate was determined as previously described (Jiang S et al. Antimicrob Agents Chemother 48:4349-4359, 2004). Peripheral blood mononuclear cells (PBMCs) were isolated from the blood of healthy donors by standard density gradient centrifugation using Histopaque-1077 (Sigma). The cells were plated in 75 cm^2 plastic flasks and incubated at 37° C. for 2 hrs. The nonadherent cells were collected and resuspended at 5×10^6 in 10 ml RPMI-1640 medium containing 10% FBS, 5 μg/ml PHA (phytohemagglutinin) and 100 U/ml IL-2 (Sigma), followed by incubation at 37° C. for 3 days. The PHA-stimulated cells were infected with a primary HIV-1 isolates at 0.01 MOI in the absence or presence of a compound at graded concentrations. Culture media were changed every 3 days. The supernatants were collected 7 days post-infection and tested for p24 antigen by ELISA as described above. The percent inhibition of p24 production and EC50 values were calculated as described above.
as §3

[7] = tested on: HIV-1 RU570 (clade G, R5); experiment: Inhibition of infection by primary HIV-1 isolate RU570; assay type: cell-based
Experimental: as §4, §3

[8] = read-out: EC50 alone, Bal (B, R5), peptide alone
[9] = read-out: EC50 alone, peptide alone
[10] = IIIB, T-20+T-1249+T-1144 16:4:1
[11] = IIIB, T-20 combined with T-1144
[12] = read-out: EC50 alone, IIIB (B, X4), peptide alone
[13] = 93IN101, T-20+T-1249+T-1144 4:1:1
[14] = 93IN101, T-20 combined with T-1144
[15] = read-out: EC50 alone, 93IN101 (C, R5) primary isolate, peptide alone
[16] = RU570 (G, R5) primary isolate, peptide alone, read-out: EC50 alone
[17] = RU570, T-20+T-1249+T-1144 4:1:1
[18] = RU570, T-20 combined with T-1144
[19] = read-out: EC50 in mixture, T-20+T-1249+T-1144 80:1:1
[20] = read-out: EC50 in mixture, T-20 combined with T-1144, ratios 80:1:1
[21] = read-out: EC50 in mixture, T-20 combined with T-1249, ratios 80:1:1

Compound: CC[C@H](C)[C@H](NC(=O)[C@H](C)NC(=O)[C@H](CCCNC(=N)N)NC(=O)[C@H](CC(=O)O)NC(=O)[C@H](Cc1c[nH]c2ccccc12)NC(=O)[C@H](C)NC(=O)[C@H](CCC(=O)O)NC(=O)[C@H](Cc1c[nH]c2ccccc12)NC(=O)[C@@H](NC(=O)[C@@H](NC(C)=O)[C@@H](C)O)[C@@H](C)O)C(=O)N[C@@H](C)C(=O)N[C@@H](CCC(=O)O)C(=O)N[C@@H](Cc1ccc(O)cc1)C(=O)N[C@@H](C)C(=O)N[C@@H](C)C(=O)N[C@@H](CCCNC(=N)N)C(=O)N[C@H](C(=O)N[C@@H](CCC(=O)O)C(=O)N[C@@H](C)C(=O)N[C@@H](CC(C)C)C(=O)N[C@@H](CC(C)C)C(=O)N[C@@H](CCCNC(=N)N)C(=O)N[C@@H](C)C(=O)N[C@@H](CC(C)C)C(=O)N[C@@H](CCC(N)=O)C(=O)N[C@@H](CCC(=O)O)C(=O)N[C@@H](CCC(N)=O)C(=O)N[C@@H](CCC(N)=O)C(=O)N[C@@H](CCC(=O)O)C(=O)N[C@@H](CCCCN)C(=O)N[C@@H](CC(N)=O)C(=O)N[C@@H](CCC(=O)O)C(=O)N[C@@H](C)C(=O)N[C@@H](C)C(=O)N[C@@H](CC(C)C)C(=O)N[C@@H](CCCNC(=N)N)C(=O)N[C@@H](CCC(=O)O)C(=O)N[C@@H](CC(C)C)C(N)=O)[C@@H](C)CC [T-1144] (Ac-TTWEAWDRAIAEYAARIEALLRALQEQQEKNEAALREL-NH2; N-terminus and C-terminus assumed)
- Dose reduction ([1]; Bal, T-20+T-1249+T-1144 2:1:1): 209.00 fold
- Dose reduction ([1]; Bal, T-20 combined with T-1144): 19.90 fold
- pEC50 [1, 8]: 8.38
- Dose reduction (HIV-1 NL4-3(36G)V38A; T-20+T-1249+T-1144 80:1:1): 37.60 fold
- Dose reduction (HIV-1 NL4-3(36G)V38A; T-20 combined with T-1144): 16.35 fold
- pEC50 (HIV-1 NL4-3(36G)V38A; [9]): 8.42
- Dose reduction ([2]; T-20+T-1249+T-1144 3000:200:1): 37.21 fold
- Dose reduction ([2]; T-20 combined with T-1144): 4.17 fold
- pEC50 [2, 9]: 8.28
- Dose reduction [3, 10]: 99.00 fold
- Dose reduction [3, 11]: 7.98 fold
- pEC50 [3, 12]: 8.31
- Dose reduction ([4]; T-20+T-1249+T-1144 80:1:1): 9.33 fold
- Dose reduction ([4]; T-20 combined with T-1144): 1.82 fold
- pEC50 [4, 9]: 8.34
- pharmacokinetic properties improved ([5]; in vivo): up to 100 fold
- Dose reduction [6, 13]: 24.17 fold
- Dose reduction [6, 14]: 14.46 fold
- pEC50 [6, 15]: 7.81
- pEC50 [7, 16]: 7.62
- Dose reduction [7, 17]: 21.23 fold
- Dose reduction [7, 18]: 18.62 fold

Compound: enfuvirtide
- Dose reduction ([1]; Bal, T-20+T-1249+T-1144 2:1:1): 280.67 fold
- Dose reduction ([1]; Bal, T-20 combined with T-1144): 20.05 fold
- Dose reduction ([1]; Bal, T-20 combined with T-1249): 11.53 fold
- pEC50 [1, 8]: 8.07
- pEC50 ([1]; read-out: EC50 in mixture, Bal, T-20+T-1249+T-1144 2:1:1): 10.52
- pEC50 ([1]; read-out: EC50 in mixture, Bal, T-20 combined with T-1144, ratios 2:1:1): 9.38
- pEC50 ([1]; read-out: EC50 in mixture, Bal, T-20 combined with T-1249, ratios 2:1:1): 9.14
- Dose reduction (HIV-1 NL4-3(36G)V38A; T-20+T-1249+T-1144 80:1:1): 37.76 fold
- Dose reduction (HIV-1 NL4-3(36G)V38A; T-20 combined with T-1144): 16.78 fold
- Dose reduction (HIV-1 NL4-3(36G)V38A; T-20 combined with T-1249): 23.03 fold
- pEC50 (HIV-1 NL4-3(36G)V38A; [9]): 6.50
- pEC50 (HIV-1 NL4-3(36G)V38A; [19]): 8.08
- pEC50 (HIV-1 NL4-3(36G)V38A; [20]): 7.73
- pEC50 (HIV-1 NL4-3(36G)V38A; [21]): 7.87
- Dose reduction ([2]; T-20+T-1249+T-1144 3000:200:1): 24.12 fold
- Dose reduction ([2]; T-20 combined with T-1144): 2.64 fold
- Dose reduction ([2]; T-20 combined with T-1249): 13.51 fold
- pEC50 [2, 9]: 5.00
- pEC50 ([2]; read-out: EC50 in mixture, T-20+T-1249+T-1144 3000:200:1): 6.39
- pEC50 ([2]; read-out: EC50 in mixture, T-20 combined with T-1144, ratios 3000:200:1): 5.43
- pEC50 ([2]; read-out: EC50 in mixture, T-20 combined with T-1249, ratios 3000:200:1): 6.14
- Dose reduction [3, 10]: 71.04 fold
- Dose reduction [3, 11]: 5.11 fold
- Dose reduction ([3]; IIIB, T-20 combined with T-1249): 3.32 fold
- pEC50 [3, 12]: 7.30
- pEC50 ([3]; read-out: EC50 in mixture, IIIB, T-20+T-1249+T-1144 16:4:1): 9.15
- pEC50 ([3]; read-out: EC50 in mixture, IIIB, T-20 combined with T-1144, ratios 16:4:1): 8.01
- pEC50 ([3]; read-out: EC50 in mixture, IIIB, T-20 combined with T-1249, ratios 16:4:1): 7.82
- Dose reduction ([4]; T-20+T-1249+T-1144 80:1:1): 67.90 fold
- Dose reduction ([4]; T-20 combined with T-1144): 13.17 fold
- Dose reduction ([4]; T-20 combined with T-1249): 11.56 fold
- pEC50 [4, 9]: 5.58
- pEC50 [4, 19]: 7.41
- pEC50 [4, 20]: 6.70
- pEC50 [4, 21]: 6.64
- half-life in vivo ([5]; in the blood): about 2 hours
- Dose reduction [6, 13]: 15.70 fold
- Dose reduction [6, 14]: 9.30 fold
- Dose reduction ([6]; 93IN101, T-20 combined with T-1249): 10.90 fold
- pEC50 [6, 15]: 7.40
- pEC50 ([6]; read-out: EC50 in mixture, 93IN101, T-20+T-1249+T-1144 4:1:1): 8.60
- pEC50 ([6]; read-out: EC50 in mixture, 93IN101, T-20 combined with T-1144, ratios 4:1:1): 8.37
- pEC50 ([6]; read-out: EC50 in mixture, 93IN101, T-20 combined with T-1249, ratios 4:1:1): 8.44
- pEC50 [7, 16]: 7.42
- Dose reduction [7, 17]: 8.47 fold
- pEC50 ([7]; RU570, T-20+T-1249+T-1144 4:1:1, read-out: EC50 in mixture): 8.34
- Dose reduction [7, 18]: 7.41 fold
- pEC50 ([7]; RU570, T-20 combined with T-1144, ratios 4:1:1, read-out: EC50 in mixture): 8.28
- pEC50 ([7]; RU570, T-20 combined with T-1249, ratios 4:1:1, read-out: EC50 in mixture): 8.22
